Experimental data published in PMC2453235, “Identification and Rational Redesign of Peptide Ligands to CRIP1, A Novel Biomarker for Cancers” (PLoS Computational Biology, 2008).
Where a SMILES comes first, the peptide text is derived from it. Bridges are numbered along the chain shown (N, C = ends). Where no end group is shown, it is not given here. The star is where a group is joined. 5FAM = O=C1OC2(c3ccc(O)cc3Oc3cc(O)ccc32)c2ccc(C(=O)*)cc21

T1: CRIP1 (Homo sapiens, UniProt P50238)
T1 construct: enterokinase cleavage site and vector linker residues (N); made in house; host or cells: E. coli (pHAT10-CRIP1, IPTG induction)
T1 sequence (P50238 1-77): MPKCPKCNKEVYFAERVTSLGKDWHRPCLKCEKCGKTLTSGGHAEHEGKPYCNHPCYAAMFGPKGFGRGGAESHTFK

T2: Cysteine-rich intestinal protein 1 (CRIP1), purified protein coated on plates for the peptide binding assays (human, UniProt P50238 1-77)
T2 construct: Cysteine-rich intestinal protein 1 (CRIP1), human; coding region of the cDNA, 77 amino acids; also called CRIP1 protein; source: bacteria (pHAT10-CRIP1, IPTG induced), purified (TALON CellThru resin)
T2 sequence (looked up): T1 sequence (P50238 1-77)

B1: unlabeled A1M peptide (peptide)
peptide: CLDGGGKGCGGGSK
modifications: disulfide 1-9 (inferred)
notes: source: synthetic peptide
B2: unlabeled A1 peptide (peptide)
peptide: CLKDNHRSCGGGSK
modifications: disulfide 1-9 (inferred)
notes: also called original A1 peptide; source: synthetic peptide

Columns and labels:
CRIP1 [1] = biological target: T1, CRIP1; assay: ELISA of individual phage clones binding to immobilized CRIP1; details: purified chimeric CRIP1 not reacted with enterokinase
Source text: To select clones for further analysis, we used ELISA to determine the relative binding affinities of selected individual phage clones to purified CRIP1 (see Methods and Figure S3). For these studies the purified chimeric CRIP1 was not reacted with enterokinase.
Supplementary file pcbi.1000138.s003.tif: Figure S3 Relative estimates of peptide affinity for CRIP1. Phage binding against immobilized CRIP-1. (0.38 MB TIF) Click here for additional data file.

CRIP1 [2] = biological target: T1, CRIP1; assay: Phage display panning (Ph.D.-C7C library), frequency of enriched sequences; type: binding; details: 4 rounds of panning against enterokinase-truncated CRIP1, 29 phage inserts sequenced
Procedure: In order to generate CRIP1 protein that was as similar as possible to endogenous CRIP1, enterokinase cleavage was performed on purified CRIP1. Uncleaved contaminating HIS-tagged CRIP1 as well as HIS-tagged peptides were removed by re-running the digest over the CellThru resin and retaining the flow thru. […] After four rounds of positive selection against enterokinase-truncated CRIP1, 29 phage DNA inserts were sequenced using a 96 gIII primer (5′-^HOCCC TCA TAG TTA GCG TAA CG-3′). Sequencing verified that 18 of the 29 phagotopes were from the cysteine-constrained phage library, Table 1. Many of the peptide sequences contained similar motifs and six sequences occurred in more than one phagotope. The peptides A1 and C5 were identified four times, C1 three times, and A9, B1, and B5 twice. However, even accounting for conserved amino acid substitutions, no clear motif could be identified.
CRIP1 was digested with enterokinase (Roche Diagnostics, Inc.) to remove the His tag and then was used as bait for 4 rounds of panning with the Ph.D.-C7C Phage Display Peptide Library (New England Biolabs). The nucleotide sequence of the gene III insert was determined by sequencing the phage, and the amino acid sequence of the insert was deduced from the nucleotide sequence, shown in Table 1.

[3] = biological target: T2, Cysteine-rich intestinal protein 1 …; assay: competitive binding on protein-coated plates (fluorescence read-out); CRIP1 coated on 96-well plates (100 µg/ml in PBS, overnight 4°C); 10 µM FITC-A1M held constant, unlabeled A1 or A1M 0 to 300 µM, 1 h at 37°C; one binding site model; details: both partners purified

| Molecule | Frequency (number of phage clones with the sequence) (CRIP1 [2]) | also measured |
| --- | --- | --- |
| CC(C)C[C@@H]1NC(=O)[C@@H](N)CSSC[C@@H](C(=O)NCC(=O)NCC(=O)NCC(=O)N[C@@H](CO)C(=O)N[C@@H](CCCCN)C(N)=O)NC(=O)[C@H](CO)NC(=O)[C@H](CCCNC(=N)N)NC(=O)[C@H](Cc2c[nH]cn2)NC(=O)[C@H](CC(N)=O)NC(=O)[C@H](CC(=O)O)NC(=O)[C@H](CCCCN)NC1=O [A1] (H-CLKDNHRSCGGGSK-NH2; disulfide 1-9; N-terminus assumed) |  | relative binding affinity of phage clone (CRIP1 [1]): higher relative affinity |
| CC[C@H](C)[C@@H]1NC(=O)[C@@H]2CCCN2C(=O)[C@H](CC(=O)O)NC(=O)[C@H](Cc2ccc(O)cc2)NC(=O)[C@@H](N)CSSC[C@@H](C(=O)NCC(=O)NCC(=O)NCC(=O)N[C@@H](CO)C(=O)N[C@@H](CCCCNC(=O)c2ccc3c(c2)C(=O)OC32c3ccc(O)cc3Oc3cc(O)ccc32)C(N)=O)NC(=O)[C@H]([C@@H](C)O)NC(=O)[C@H](CCCNC(=N)N)NC(=O)[C@H](Cc2c[nH]c3ccccc23)NC1=O [B5] (H-CYDPIWRTCGGGSK(5FAM)-NH2; disulfide 1-9; N-terminus assumed) |  | relative binding affinity of phage clone (CRIP1 [1]): higher relative affinity |
| APYNTLA (disulfide (positions not given here)) [A6, C7C phage display peptide APYNTLA] | 1 |  |
| DHRQGSS (disulfide (positions not given here)) [A5, C7C phage display peptide DHRQGSS] | 1 |  |
| FSTNMKT (disulfide (positions not given here)) [B3, C7C phage display peptide FSTNMKT] | 1 |  |
| HANFLHM (disulfide) [C2, C7C phage display peptide HANFLHM] | 1 |  |
| LPAYSTY (disulfide (positions not given here)) [B9, C7C phage display peptide LPAYSTY] | 1 |  |
| PLFKGMS (disulfide (positions not given here)) [B7, C7C phage display peptide PLFKGMS] | 1 |  |
| RDSSAHQ (disulfide (positions not given here)) [B10, C7C phage display peptide RDSSAHQ] | 1 |  |
| RTTGAQT (disulfide (positions not given here)) [B4, C7C phage display peptide RTTGAQT] | 1 |  |
| SLNTRSQ (disulfide (positions not given here)) [C9, C7C phage display peptide SLNTRSQ] | 1 |  |
| SPHIIAS (disulfide (positions not given here)) [A8, C7C phage display peptide SPHIIAS] | 1 |  |
| SVPINDS (disulfide) [A3, C7C phage display peptide SVPINDS] | 1 |  |
| TPRQSPI (disulfide) [C5, C7C phage display peptide TPRQSPI] |  | relative binding affinity of phage clone (CRIP1 [1]): lower binding affinity |
| YDPIWRT (disulfide (positions not given here)) [B2, C7C phage display peptide YDPIWRT] | 1 |  |
| B1 |  | IC50 [3]: 320 nM; Ki [3]: 67 nM |
| B2 |  | IC50 [3]: 8800 nM |
